Structures are written as SMILES.

T1 sequence (P95493 230-664): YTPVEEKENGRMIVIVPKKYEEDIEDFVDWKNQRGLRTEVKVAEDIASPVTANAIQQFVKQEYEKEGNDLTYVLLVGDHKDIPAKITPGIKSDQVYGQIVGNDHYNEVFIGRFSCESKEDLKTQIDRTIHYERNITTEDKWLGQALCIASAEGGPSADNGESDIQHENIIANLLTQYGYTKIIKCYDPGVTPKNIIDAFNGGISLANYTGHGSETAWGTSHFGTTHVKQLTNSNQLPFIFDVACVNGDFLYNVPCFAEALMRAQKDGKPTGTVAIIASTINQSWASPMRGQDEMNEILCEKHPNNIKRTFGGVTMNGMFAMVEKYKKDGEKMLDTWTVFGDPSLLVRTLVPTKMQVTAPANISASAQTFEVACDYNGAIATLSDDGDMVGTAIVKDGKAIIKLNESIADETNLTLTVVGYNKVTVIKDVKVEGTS

Tested on in one series: not given
Assay: not given
Conditions: in vivo, po; cited from earlier work.
As to `CN(NC(=O)CC[C@H](NC(=O)OCc1ccccc1)C(=O)N[C@@H](CCCCN)C(=O)C(=O)NCc1ccccc1)c1ccccc1` [Kyt-36], the half-life entry is given as “increases the half-life”.

A further series has as its target T1, RgpB (Porphyromonas gingivalis, UniProt P95493).
T1 construct: 0.02 nM RgpB, isolated from culture of Porphyromonas gingivalis; endogenous in cells
The series is described as follows: RgpB inhibition, fluorogenic assay. Type of series: biochemical. Conditions: Activity (RgpB IC50), 0.02 nM RgpB, 10 μM Boc-Phe-Ser-Arg-MCA, 90 minutes, 37° C., pH=7.5. As for the experimental part:
The capacities of compounds of the present invention to inhibit the activity of RgpB were measured in a fluorogenic assay similar to those described in Barret Biochemical Journal. 1980, 187(3), 909. The specific assay conditions were as follows. Buffer: pH=7.5, 100 mM Tris-HCl, 75 mM NaCl, 2.5 mM CaCl2, 10 mM cysteine, 1% DMSO after all additions. Protein: 0.02 nM RgpB, isolated from culture of Porphyromonas gingivalis, as described in Pike et al. J. Biol. Chem. 1994, 269(1), 406, and Potempa and Nguyen. Current Protocols in Protein Scienc. 2007, 21.20.1-21.20.27. Fluorogenic substrate: 10 μM Boc-Phe-Ser-Arg-MCA. Time=90 minutes. Temperature=37° C. Each compound: 10 concentrations, starting at either 100 μM or 100 nM, with lower concentrations generated by serial 3-fold dilutions. By testing a range of concentrations for each compound, the concentration required to inhibit the activity of RgpB by 50% (the “IC50”) was determined.
A word on the IC50: it is the concentration at which inhibition is half-maximal. Read a high IC50 as weaker potency in that assay. Molecule `COC(C)(C)C(=O)NC(Cc1ccc(N)nc1)C(=O)COc1c(F)ccc(F)c1F` (stereo not drawn) [Compound 61, N-(1-(6-aminopyridin-3-yl)-3-oxo-4-(2,3,6-trifluorophenoxy)butan-2-yl)-2-methoxy-2-methylpropanamide] displayed an IC50 of less than 0.1 µM.

For the molecule `CNc1nccc2cc([C@@H]3CCCN3C#N)ccc12` [Compound 51a, (S)-2-(1-(methylamino)isoquinolin-6-yl)pyrrolidine-1-carbonitrile], the IC50 fell in the range of 10 to 100 µM.

With `COC(C)(C)C(=O)NC(Cc1ccc(N)nc1)C(=O)COc1c(F)cccc1F` (stereo not drawn) [Compound 58, N-(1-(6-aminopyridin-3-yl)-4-(2,6-difluorophenoxy)-3-oxobutan-2-yl)-2-methoxy-2-methylpropanamide], the IC50 is 0.1 to 1 µM.

`COC(C)(C)C(=O)NC(Cc1ccnc(N)c1)C(=O)COc1c(F)c(F)cc(F)c1F` (stereo not drawn) [Compound 65, N-(1-(2-aminopyridin-4-yl)-3-oxo-4-(2,3,5,6-tetrafluorophenoxy)butan-2-yl)-2-methoxy-2-methylpropanamide] yielded an IC50 of less than 0.1 µM.

As to `N#CN1CCCC1CCc1ccnc(N)c1` (stereo not drawn) [Compound 21, 2-(2-(2-aminopyridin-4-yl)ethyl)pyrrolidine-1-carbonitrile], the half-maximal inhibitory concentration (IC50) is 0.1 to 1 µM.

For `CN(C#N)Cc1cc2ccnc(N)c2o1` [Compound 48, N-((7-aminofuro[2,3-c]pyridin-2-yl)methyl)-N-methylcyanamide], the IC50 fell in the range of 0.1 to 1 µM.

On to `CC(COc1ccnc(N)c1)N(C)C#N` (stereo not drawn) [Compound 14, N-(1-((2-aminopyridin-4-yl)oxy)propan-2-yl)-N-methylcyanamide], for which the IC50 was in the range of 0.1 to 1 µM.

Molecule `Cc1cnc(N)cc1OC[C@@H]1CCCN1C#N` [Compound 29, (S)-2-(((2-amino-5-methylpyridin-4-yl)oxy)methyl)pyrrolidine-1-carbonitrile] returned a half-inhibitory concentration (IC50) of 10 to 100 µM.

`CN(C)c1cc(OCC2CCCN2C#N)ccn1` (stereo not drawn) [Compound 23, 2-(((2-(dimethylamino)pyridin-4-yl)oxy)methyl)pyrrolidine-1-carbonitrile] showed an IC50 of 10 to 100 µM.

The molecule `CC(C)C(COc1ccnc(N)c1)N(C)C#N` (stereo not drawn) [Compound 34, N-(1-((2-aminopyridin-4-yl)oxy)-3-methylbutan-2-yl)-N-methylcyanamide] came in with an IC50 of 1 to 10 µM.

For the molecule `CN(C#N)Cc1cc2c(N)nccc2o1` [Compound 4, N-((4-aminofuro[3,2-c]pyridin-2-yl)methyl)-N-methylcyanamide], the IC50 was in the range of 10 to 100 µM.

`Nc1ccc(C[C@H](NC(=O)C2CCCC2)C(=O)COc2c(F)c(F)cc(F)c2F)cn1` [Compound 56, (S)—N-(1-(6-aminopyridin-3-yl)-3-oxo-4-(2,3,5,6-tetrafluorophenoxy)butan-2-yl)cyclopentanecarboxamide] returned a half-inhibitory concentration (IC50) of less than 0.1 µM.

In turn, `N#CN1CCCC1c1ccc2c(N)nccc2c1` (stereo not drawn) [Compound 45, 2-(1-aminoisoquinolin-6-yl)pyrrolidine-1-carbonitrile] displayed an IC50 of less than 0.1 µM.

Molecule `N#CN1CCC[C@H]1C(O)Cc1ccnc(N)c1` (stereo partly drawn) [Compound 31, (2S)-2-(2-(2-aminopyridin-4-yl)-1-hydroxyethyl)pyrrolidine-1-carbonitrile] showed an IC50 greater than 100 µM.

As for `Nc1cc(CCC(NC(=O)C2CCCC2)C(=O)COc2ccon2)ccn1` (stereo not drawn) [Compound 71, N-(5-(2-aminopyridin-4-yl)-1-(isoxazol-3-yloxy)-2-oxopentan-3-yl)cyclopentanecarboxamide], the IC50 was in the range of 0.1 to 1 µM.

Molecule `N#CN1CC(Oc2ccnc(N)c2)C1` [Compound 7, 3-((2-aminopyridin-4-yl)oxy)azetidine-1-carbonitrile] showed an IC50 greater than 100 µM.

As to `N#CN1CCC[C@H]1COc1ccnc(N)c1Cl` [Compound 42, (S)-2-(((2-amino-3-chloropyridin-4-yl)oxy)methyl)pyrrolidine-1-carbonitrile], the IC50 was 10 to 100 µM.

`N#CN1CCCC1CCOc1ccnc(N)c1` (stereo not drawn) [Compound 16, 2-(2-((2-aminopyridin-4-yl)oxy)ethyl)pyrrolidine-1-carbonitrile] yielded a half-inhibitory concentration (IC50) of 10 to 100 µM.

The molecule `N#CN1CCCCC1COc1ccnc(N)c1` (stereo not drawn) [Compound 12, 2-(((2-aminopyridin-4-yl)oxy)methyl)piperidine-1-carbonitrile] showed an IC50 of 0.1 to 1 µM.

As for `CN(C#N)c1ccccc1Oc1ccnc(N)c1` [Compound 27, N-(2-((2-aminopyridin-4-yl)oxy)phenyl)-N-methylcyanamide], the IC50 was greater than 100 µM.

Molecule `N#CN1CCC[C@@H]1c1ccc2c(N)nccc2c1` [Compound 43, (R)-2-(1-aminoisoquinolin-6-yl)pyrrolidine-1-carbonitrile] gave an IC50 of less than 0.1 µM.

For the molecule `N#CN1CCC[C@H]1c1ccc2c(N)nccc2c1` [Compound 44, (S)-2-(1-aminoisoquinolin-6-yl)pyrrolidine-1-carbonitrile], the IC50 was in the range of 0.1 to 1 µM.

The molecule `Nc1ccc(CC(NC(=O)C2CCCC2)C(=O)COc2c(F)c(F)cc(F)c2F)cn1` (stereo not drawn) [Compound 53, N-(1-(6-aminopyridin-3-yl)-3-oxo-4-(2,3,5,6-tetrafluorophenoxy)butan-2-yl)cyclopentanecarboxamide] showed an IC50 of less than 0.1 µM.

The molecule `Nc1ccc(CCC(NC(=O)C2CCCC2)C(=O)COc2ccon2)cn1` (stereo not drawn) [Compound 74, N-(5-(6-aminopyridin-3-yl)-1-(isoxazol-3-yloxy)-2-oxopentan-3-yl)cyclopentanecarboxamide] came in with a concentration for half-maximal inhibition (IC50) of less than 0.1 µM.

With `CC(CN(C)C#N)Oc1ccnc(N)c1` (stereo not drawn) [Compound 15, N-(2-((2-aminopyridin-4-yl)oxy)propyl)-N-methylcyanamide], the IC50 fell in the range of 0.1 to 1 µM.

As to `N#CN1CCC(Oc2ccnc(N)c2)C1` (stereo not drawn) [Compound 2, 3-((2-aminopyridin-4-yl)oxy)pyrrolidine-1-carbonitrile], the IC50 is 0.1 to 1 µM.

Consider `N#CN1C[C@@H](O)C[C@@H]1c1ccc2c(N)nccc2c1` [Compound 50b, (2R,4S)-2-(1-aminoisoquinolin-6-yl)-4-hydroxypyrrolidine-1-carbonitrile], for which the IC50 is less than 0.1 µM.

As to `N#CN1c2ccccc2CC1COc1ccnc(N)c1` (stereo not drawn) [Compound 24, 2-(((2-aminopyridin-4-yl)oxy)methyl)indoline-1-carbonitrile], the IC50 lay in the range of 10 to 100 µM.

For `COC(C)(C)C(=O)NC(Cc1ccnc(N)c1)C(=O)COc1ccon1` (stereo not drawn) [Compound 63, N-(1-(2-aminopyridin-4-yl)-4-(isoxazol-3-yloxy)-3-oxobutan-2-yl)-2-methoxy-2-methylpropanamide], the IC50 fell in the range of 1 to 10 µM.

As to `CC(C)N(C#N)CCc1ccnc(N)c1` [Compound 5, N-(2-(2-aminopyridin-4-yl)ethyl)-N-isopropylcyanamide], the IC50 was 10 to 100 µM.

For the molecule `Nc1ccc(CC(NC(=O)C2CCCC2)C(=O)COc2c(F)ccc(F)c2F)cn1` (stereo not drawn) [Compound 66, N-(1-(6-aminopyridin-3-yl)-3-oxo-4-(2,3,6-trifluorophenoxy)butan-2-yl)cyclopentanecarboxamide], the IC50 was less than 0.1 µM.

`N#CN1CCN(c2ccnc(N)c2)CC1` [Compound 33, 4-(2-aminopyridin-4-yl)piperazine-1-carbonitrile] had an IC50 of 1 to 10 µM.

Staying with this series, now noted: Activity (RgpB IC50), compound not tested above 1 μM; 0.02 nM RgpB, 10 μM Boc-Phe-Ser-Arg-MCA, 90 minutes, 37° C.
As for `CN(C)c1nccc2cc([C@@H]3CCCN3C#N)ccc12` [Compound 52a, (S)-2-(1-(dimethylamino)isoquinolin-6-yl)pyrrolidine-1-carbonitrile], the IC50 was greater than 1 µM.

On to `COC(C)(C)C(=O)NC(Cc1ccc(N)nc1)C(=O)COC(C(F)(F)F)C(F)(F)F` (stereo not drawn) [Compound 72, N-(1-(6-aminopyridin-3-yl)-4-((1,1,1,3,3,3-hexafluoropropan-2-yl)oxy)-3-oxobutan-2-yl)-2-methoxy-2-methylpropanamide], for which the IC50 was greater than 1 µM.

Molecule `CN(C)c1nccc2cc([C@H]3CCCN3C#N)ccc12` [Compound 52b, (R)-2-(1-(dimethylamino)isoquinolin-6-yl)pyrrolidine-1-carbonitrile] registered an IC50 greater than 1 µM.

The values are drawn from patent US11059786B2, “Aminopyridine compounds and methods for the preparation and use thereof” (Cortexyme, Inc., priority 2017, dated 2021).
